Source: paper PMC8568530, “Inhibition of Vascular Smooth Muscle and Cancer Cell Proliferation by New VEGFR Inhibitors and Their Immunomodulator Effect: Design, Synthesis, and Biological Evaluation” (Oxidative Medicine and Cellular Longevity, 2021)

Tests used:
MCF-7 = experiment: MTT antiproliferative assay, MCF-7; type: cell-based; conditions: Homo sapiens, MCF7, breast cancer MCF-7
Procedure: (§1) The in vitro antiproliferative activities of the newly synthesized compounds were evaluated against a panel of three human tumor cell lines, namely, breast cancer (MCF-7), hepatocellular carcinoma (HepG-2), and colorectal carcinoma (HCT-116) using the standard MTT method. The tested cell lines were selected depending on their VEGF overexpression. Sorafenib, the lead drug, was coassayed as a positive control.
(§2) The antiproliferative activity of the synthesized compounds was evaluated using MTT protocol as described (Supplementary data (available here)).

HepG-2 = experiment: MTT antiproliferative assay, HepG-2; type: cell-based; conditions: Homo sapiens, HepG2, hepatocellular carcinoma HepG-2
Procedure: as §1, §2

HCT-116 = experiment: MTT antiproliferative assay, HCT-116; type: cell-based; conditions: Homo sapiens, colorectal carcinoma HCT-116
Procedure: as §1, §2

[1] = test system: WI-38 cell line (normal human lung fibroblasts); experiment: MTT cytotoxicity against normal cells WI-38; type: cell-based; conditions: normal human lung fibroblasts WI-38
Procedure: The cytotoxicity values of the synthesized compounds against the WI-38 cell line (normal human lung fibroblasts) were also evaluated in vitro.
as §2

BAX = BAX level in HepG-2 cells; type: cell-based, human; conditions: for BAX Conc.: HepG-2 cells treated with compound; for BAX Fold: HepG-2 cells, versus control
Description: (§3) (2) Effects on Bcl-2 Family Proteins. The Bcl-2 family proteins are vital regulators of apoptosis cell death. Members of this family include the proapoptotic factor Bax which promotes cell death and the prosurvival (antiapoptotic) Bcl-2 which suppresses cell death. […] Results are expressed in Table 3.
(§4) (2) Effects on Bcl-2 Family Proteins. […] (Supplementary data).

TNF-α = TNF-α in HepG-2 supernatant (ELISA); type: cell-based, human
Description: (1) Estimation of Human Tumor Necrosis Factor Alpha (TNF-α) in HepG-2 Supernatant. […] Celecoxib, a potent inhibitor of TNF-α-induced cytokine expressions, was used as a positive control. […] Among the tested compounds, compound 7a caused a remarkably significant reduction in TNF-α levels (87%) in comparison to celecoxib (86%).
The levels of TNF-α in cell culture supernatants were estimated by the ELISA technique according to the reported procedure.

Bcl-2 = Bcl-2 level in HepG-2 cells; type: cell-based, human; conditions: for Bcl-2 Conc.: HepG-2 cells treated with compound; for Bcl-2 Fold: HepG-2 cells, versus control
Description: as §3, §4

caspase-3 = experiment: Active caspase-3 level in HepG-2 cells; type: cell-based, human; conditions: for Caspase 3 Conc.: HepG-2 cells treated with compound; for Caspase 3 Fold: HepG-2 cells, versus control
Description: (1) Effects on the Levels of Active Caspase-3. A significant mechanism by which anticancer agents can affect cancer cells is apoptosis. Apoptosis is a process of automated cell death. The apoptosis mechanism is typically mediated by a group of proteases called caspases. Caspase-3 is activated in every mammalian cell type provoking the cell to die, considered one of the apoptosis marks.
(1) Effects on the Levels of Active Caspase-3. […] (Supplementary data).

VEGFR-2 = VEGFR-2 (Homo sapiens, UniProt P35968); experiment: In vitro VEGFR-2 enzyme inhibition assay; type: biochemical; conditions: read-out: IC50 against VEGFR-2
Sequence of VEGFR-2 (P35968 20-1356): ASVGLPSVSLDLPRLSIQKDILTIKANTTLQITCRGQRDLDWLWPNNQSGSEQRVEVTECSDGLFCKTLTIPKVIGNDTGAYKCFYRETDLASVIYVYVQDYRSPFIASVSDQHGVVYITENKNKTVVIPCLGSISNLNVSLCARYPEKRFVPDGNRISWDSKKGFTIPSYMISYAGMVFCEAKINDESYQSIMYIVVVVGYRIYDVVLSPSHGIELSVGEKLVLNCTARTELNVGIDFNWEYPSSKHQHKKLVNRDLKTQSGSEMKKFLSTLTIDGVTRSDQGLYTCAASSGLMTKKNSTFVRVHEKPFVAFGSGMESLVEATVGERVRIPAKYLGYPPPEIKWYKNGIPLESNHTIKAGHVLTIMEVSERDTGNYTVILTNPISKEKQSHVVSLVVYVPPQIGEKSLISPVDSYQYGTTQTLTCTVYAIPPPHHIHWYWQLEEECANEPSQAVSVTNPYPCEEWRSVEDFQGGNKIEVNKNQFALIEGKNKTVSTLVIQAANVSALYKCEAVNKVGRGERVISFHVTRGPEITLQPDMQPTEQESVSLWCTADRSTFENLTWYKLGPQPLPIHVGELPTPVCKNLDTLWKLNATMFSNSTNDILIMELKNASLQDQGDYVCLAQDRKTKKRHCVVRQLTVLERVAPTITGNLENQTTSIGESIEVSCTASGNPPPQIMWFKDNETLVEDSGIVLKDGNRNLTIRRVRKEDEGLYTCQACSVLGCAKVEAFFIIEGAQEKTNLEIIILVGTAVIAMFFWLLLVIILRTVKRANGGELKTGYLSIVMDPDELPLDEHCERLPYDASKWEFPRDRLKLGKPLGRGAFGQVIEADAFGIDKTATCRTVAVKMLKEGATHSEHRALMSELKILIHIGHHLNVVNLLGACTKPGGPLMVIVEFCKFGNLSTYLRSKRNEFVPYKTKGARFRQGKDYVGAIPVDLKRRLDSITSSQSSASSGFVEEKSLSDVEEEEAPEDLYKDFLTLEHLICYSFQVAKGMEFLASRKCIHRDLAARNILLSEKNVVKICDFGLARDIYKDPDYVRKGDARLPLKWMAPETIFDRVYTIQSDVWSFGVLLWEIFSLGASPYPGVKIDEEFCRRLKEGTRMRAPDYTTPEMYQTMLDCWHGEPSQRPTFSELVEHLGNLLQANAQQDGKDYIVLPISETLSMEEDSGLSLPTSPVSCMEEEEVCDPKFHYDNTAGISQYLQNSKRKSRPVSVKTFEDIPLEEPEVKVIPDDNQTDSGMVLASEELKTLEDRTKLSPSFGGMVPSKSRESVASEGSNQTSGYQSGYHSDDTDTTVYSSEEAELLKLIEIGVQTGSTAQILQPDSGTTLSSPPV

[2] = test system: MCF-7, HepG-2, and HCT-116; experiment: MTT antiproliferative assay, panel of three tumor cell lines (range over lines); type: cell-based; conditions: Homo sapiens, range over the three cancer cell lines, read-out: cytotoxic IC50, range over MCF-7, HepG-2 and HCT-116
Procedure: as §1, §2

Structure (SMILES)	IC50 (MCF-7) [µM]	melting point [°C]	IC50 (HCT-116) [µM]	IC50 (VEGFR-2) [µM]	IC50 (HepG-2) [µM]	IC50 [1] [µM]	BAX Conc. (BAX) [pg/mL]	BAX Fold (BAX) [fold]	TNF-α % inhibition (TNF-α) [%]	Bcl-2 Conc. (Bcl-2) [pg/mL]	Bcl-2 Fold (Bcl-2) [fold]	Caspase 3 Conc. (caspase-3) [pg/mL]	Caspase 3 Fold (caspase-3) [fold]	IC50 [2] [µM]
COc1ccc(NC(=O)c2ccc(NC(=O)c3cccnc3)cc2)cc1 [Compound 7b, N-(4-((4-Methoxyphenyl)carbamoyl)phenyl)nicotinamide]	1.25		2.54	3.45	2.12	82.2	257.5	11.93	72	1.92	0.36	397.61		
O=C(NNC(=O)C(F)(F)F)c1ccc(NC(=O)c2cccnc2)cc1 [Compound 10, N-(4-(2-(2,2,2-Trifluoroacetyl)hydrazine-1-carbonyl)phenyl)nicotinamide]	3.55		5.49	7.68	3.16	78.4	231.6	10.73	40	2.72	0.51	334.57	6.51	
O=C(Nc1ccc(C(=O)NC2CCCCC2)cc1)c1cccnc1 [Compound 5, N-(4-(Cyclohexylcarbamoyl)phenyl)nicotinamide]	4.66		1.6	2.46	3.29	61.4	232.7	10.78	85	1.35	0.25	345.5	6.72	
O=C(Nc1ccc(C(=O)Nc2ccc(Cl)cc2Cl)cc1)c1cccnc1 [Compound 7g, N-(4-((2,4-Dichlorophenyl)carbamoyl)phenyl)nicotinamide]	42.1	189 to 192	31.7		26.6	132								
O=C(Nc1ccc(F)cc1)c1ccc(NC(=O)c2cccnc2)cc1 [Compound 7l, N-(4-((4-Fluorophenyl)carbamoyl)phenyl)nicotinamide]	3.5		2.75	3.84	2.64	68.2	226.9	10.51	74	2.11	0.39	340.42	6.62	
CNC(=O)c1cc(Oc2ccc(NC(=O)Nc3ccc(Cl)c(C(F)(F)F)c3)cc2)ccn1 [Sorafenib, reference compound]	4.32		5.28		3.76									
Cc1ccccc1NC(=O)c1ccc(NC(=O)c2cccnc2)cc1 [Compound 7f, N-(4-(o-Tolylcarbamoyl)phenyl)nicotinamide]	20.5	194 to 197	18.3		31.4	157								14.1 to 31.4
O=C(Nc1ccccc1)c1ccc(NC(=O)c2cccnc2)cc1 [Compound 7d, N-(4-(Phenylcarbamoyl)phenyl)nicotinamide]	23.1	232 to 235	31.5		29.1	144								
COc1ccccc1NC(=O)c1ccc(NC(=O)c2cccnc2)cc1 [Compound 7c, N-(4-((2-Methoxyphenyl)carbamoyl)phenyl)nicotinamide]	11.8	185 to 187	15.3		19.4	137								
Cc1ccc(NC(=O)c2ccc(NC(=O)c3cccnc3)cc2)cc1 [Compound 7j, N-(4-(p-Tolylcarbamoyl)phenyl)nicotinamide]	16.8	219 to 222	15.1		14.1	84.9								14.1 to 31.4
O=C(Nc1ccc(C(=O)Nc2ccccc2[N+](=O)[O-])cc1)c1cccnc1 [Compound 7i, N-(4-((2-Nitrophenyl)carbamoyl)phenyl)nicotinamide]	16.1	198 to 201	18.4		15.2	103								
O=C(NCc1ccccc1)c1ccc(NC(=O)c2cccnc2)cc1 [Compound 6, N-(4-(Benzylcarbamoyl)phenyl)nicotinamide]	18.3	229 to 232	16.4		15.5	117								
O=C(Nc1ccc(Cl)cc1)c1ccc(NC(=O)c2cccnc2)cc1 [Compound 7e, N-(4-((4-Chlorophenyl)carbamoyl)phenyl)nicotinamide]	13.4	272 to 274	17.8		22.4	143								

Now from value to molecule, other results behind:

IC50 (MCF-7) [µM]	melting point [°C]	IC50 (HCT-116) [µM]	IC50 (VEGFR-2) [µM]	Structure (SMILES)	IC50 (HepG-2) [µM]	IC50 [1] [µM]	BAX Conc. (BAX) [pg/mL]	BAX Fold (BAX) [fold]	TNF-α % inhibition (TNF-α) [%]	Bcl-2 Conc. (Bcl-2) [pg/mL]	Bcl-2 Fold (Bcl-2) [fold]	Caspase 3 Conc. (caspase-3) [pg/mL]	Caspase 3 Fold (caspase-3) [fold]	IC50 [2] [µM]
18.2	283 to 285	14.5		O=C(N/N=C/c1c(Cl)cccc1Cl)c1ccc(NC(=O)c2cccnc2)cc1 [Compound 11e, (E)-N-(4-(2-(2,6-Dichlorobenzylidene)hydrazine-1-carbonyl)phenyl)-nicotinamide]	23.9	80.1								
19.4	167 to 169	21.7		O=C(CSc1nnc(-c2cccnc2)o1)NCc1ccccc1 [Compound 18c, N-Benzyl-2-((5-(pyridin-3-yl)-1,3,4-oxadiazol-2-yl)thio)acetamide]	8.59	92.1								
15.5	260 to 262	13.4		O=C(N/N=C/c1ccccc1)c1ccc(NC(=O)c2cccnc2)cc1 [Compound 11b, (E)-N-(4-(2-Benzylidenehydrazine-1-carbonyl)phenyl)-nicotinamide]	17.6	72.3								
4.15		1.94	2.74	COc1ccc(/C=N/NC(=O)c2ccc(NC(=O)c3cccnc3)cc2)cc1 [Compound 11d, (E)-N-(4-(2-(4-Methoxybenzylidene)hydrazine-1-carbonyl)phenyl)-nicotinamide]	2.23	50.3	237.9	11.02	81	1.72	0.32	391.23		
5.81		5.13	5.23	O=C(CSc1nnc(-c2cccnc2)o1)Nc1ccc(Cl)cc1 [Compound 18a, N-(4-Chlorophenyl)-2-((5-(pyridin-3-yl)-1,3,4-oxadiazol-2-yl)thio)acetamide]	8.29	123	113.5	5.26	45	2.63	0.49	267.64	5.20	
2.67		4.19	6.57	O=C(CSc1nnc(-c2cccnc2)o1)Nc1ccccc1 [Compound 18b, N-Phenyl-2-((5-(pyridin-3-yl)-1,3,4-oxadiazol-2-yl)thio)acetamide]	6.11	64.3	154.4	7.15	54	2.51	0.47	310.75	6.04	
20.2	256 to 259	34.9		O=C(N/N=C/c1ccc(O)cc1)c1ccc(NC(=O)c2cccnc2)cc1 [Compound 11h, (E)-N-(4-(2-(4-Hydroxybenzylidene)hydrazine-1-carbonyl)phenyl)-nicotinamide]	31.1	103								
12.3	263 to 265	17.2		O=C(N/N=C/c1ccc(F)cc1)c1ccc(NC(=O)c2cccnc2)cc1 [Compound 11a, (E)-N-(4-(2-(4-Fluorobenzylidene)hydrazine-1-carbonyl)phenyl)-nicotinamide]	15.5	85.1								
